One assay concerns the target CDK1/CyclinB1 (Homo sapiens (Human), UniProt P06493). The assay is described as follows: CDK1 kinase assay (TR-FRET). The format is biochemical. To be noted: CDK1/CyclinB 7.5 nM, ATP 17 μM. How it is done: (§1) The purpose of these assays is to evaluate the inhibition of small molecule inhibitors by using TR-FRET assay.
(§2) Compound Preparation. Dissslove the compounds into DMSO solution to make 10 mM DMSO stock. Serially dilute the stock solution from highest concentration down to lowest in DMSO to make the compound stock plate (100× stock plates). To make 5× compound intermediate plate, add 38 μL of assay buffer (50 mM HEPES, pH 7.5, 0.05 mg/mL BSA, 10 mM MgCl2, 1 mM EGTA, 0.01% Tween-20, 2 mM DTT) into each well of the V-bottom plate; then transfer 2 μL of the stock compound solution of each concentration from the compound stock plate (100× stock), and mix well.
(§3) Enzyme reaction. Transfer 2 μL compound from 5× intermediate plate into assay plate, then add 4 μL/well 2.5× Enzyme mix to assay plate, incubation for 10 min at room temperature. For positive control wells, add 4 μL/well assay buffer instead of Enzyme mix. Then add 4 μL/well 2.5× Substrate mix to assay plate, and incubation at 25° C. for 30 min at room temperature. After reaction, 10 μL 2× Detection mix (final 15 mM EDTA, 1× LANCE Detection Buffer, 0.5 nM Detection antibody) was added and incubated for 1 h prior to detection with excitation and emission at 320 and 665 nm (Tecan Spark® TR-FRET mode Tecan).
(§4) Inhibition rate (IR) of the tested compounds was determined by the following formula: IR (%)=(average High control−compound well)/(average High control−average Low control)*100%. Fit the compound IC50 from non-linear regression equation: Y=Bottom+(Top−Bottom)/(1+10^((Log IC50−X)*HillSlope)). X: Log of cpd concentration; Y: Inhibition rate (TR); Top and Bottom: Plateaus in same units as Y, log IC50: same log units as X; HillSlope: Slope factor or Hill slope.

Another assay concerns the target CDK2/CyclinE1 (Homo sapiens (Human), UniProt P24941). The assay is described as follows: CDK2 kinase assay (TR-FRET). To be noted: CDK2/CyclinE1 0.5 nM, ATP 50 μM. The format is biochemical. In a few lines:
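Compounds were preincubated 10 min at room temperature with enzyme in 50 mM HEPES pH 7.5, 10 mM MgCl2, 1 mM EGTA, 2 mM DTT, 0.01% Tween-20, BSA. Substrate reaction ran 30 min at 25 °C, was stopped with EDTA and read by LANCE TR-FRET (ex 320/em 665 nm) after 1 h. IC50 came from a four-parameter fit of % inhibition.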

The next assay concerns the target GSK3β (Homo sapiens (Human), UniProt P49841). The assay is described as follows: GSK3β kinase assay (TR-FRET). Type of assay: biochemical. Particulars: GSK3β 1.0 nM, ATP 8.0 μM. The method, then: as §1, §2, §3, §4
On the technique in general: Time-resolved FRET reads energy transfer from a long-lived donor to a nearby acceptor.

In the next assay the target is CDK4/CyclinD1 (Homo sapiens (Human), UniProt P11802). The assay is described as follows: CDK4 kinase assay (TR-FRET). The format is biochemical. To be noted: CDK4/CyclinD1 0.50 nM, ATP 225 μM. The method, then: as §1, §2, §3, §4
CDK4/CyclinD1, sequence (P11802 whole entry): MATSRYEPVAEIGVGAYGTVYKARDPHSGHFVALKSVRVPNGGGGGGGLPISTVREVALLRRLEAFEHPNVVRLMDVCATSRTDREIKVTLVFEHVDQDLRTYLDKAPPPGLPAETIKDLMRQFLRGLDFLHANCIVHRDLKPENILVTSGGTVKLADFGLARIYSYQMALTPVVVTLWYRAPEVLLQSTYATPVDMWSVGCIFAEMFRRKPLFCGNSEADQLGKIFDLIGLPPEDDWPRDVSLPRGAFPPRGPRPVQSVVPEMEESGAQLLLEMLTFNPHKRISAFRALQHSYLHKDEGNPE
CDK4/CyclinD1, sequence (P24385 whole entry partner): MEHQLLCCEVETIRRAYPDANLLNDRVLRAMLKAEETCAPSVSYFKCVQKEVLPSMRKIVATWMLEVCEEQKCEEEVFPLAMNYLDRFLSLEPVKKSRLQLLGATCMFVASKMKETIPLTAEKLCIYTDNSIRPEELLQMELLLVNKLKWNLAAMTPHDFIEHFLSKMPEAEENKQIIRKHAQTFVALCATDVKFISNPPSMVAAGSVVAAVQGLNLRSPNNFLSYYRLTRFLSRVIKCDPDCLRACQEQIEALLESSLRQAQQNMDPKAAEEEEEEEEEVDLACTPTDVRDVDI
The target in another assay is CDK6/CyclinD3 (Homo sapiens (Human), UniProt Q00534). The assay is described as follows: CDK6 kinase assay (TR-FRET). Type of assay: biochemical. To be noted: CDK6/CyclinD3 0.50 nM, ATP 140 μM. The method, then: as §1, §2, §3, §4
CDK6/CyclinD3, sequence (Q00534 whole entry): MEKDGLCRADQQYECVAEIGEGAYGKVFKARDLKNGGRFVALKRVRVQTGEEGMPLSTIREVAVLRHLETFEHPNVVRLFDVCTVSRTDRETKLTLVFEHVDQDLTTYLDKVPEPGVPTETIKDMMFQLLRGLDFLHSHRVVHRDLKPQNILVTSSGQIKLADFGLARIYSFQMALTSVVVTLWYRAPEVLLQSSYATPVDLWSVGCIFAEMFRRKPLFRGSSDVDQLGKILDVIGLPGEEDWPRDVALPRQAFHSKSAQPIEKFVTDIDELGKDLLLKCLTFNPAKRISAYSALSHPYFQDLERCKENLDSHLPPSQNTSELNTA
CDK6/CyclinD3, sequence (P30281 whole entry partner): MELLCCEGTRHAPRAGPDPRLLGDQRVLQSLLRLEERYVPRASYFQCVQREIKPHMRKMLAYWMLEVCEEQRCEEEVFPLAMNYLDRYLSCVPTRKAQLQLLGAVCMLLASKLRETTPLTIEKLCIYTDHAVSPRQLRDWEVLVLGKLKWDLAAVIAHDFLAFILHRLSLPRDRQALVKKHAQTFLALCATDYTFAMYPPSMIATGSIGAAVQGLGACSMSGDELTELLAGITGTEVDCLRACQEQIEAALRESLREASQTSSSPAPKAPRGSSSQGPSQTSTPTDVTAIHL
The test system of the next assay is OVCAR3 cancer cells. The assay is described as follows: OVCAR3 proliferation assay (CellTiter-Glo). Particulars: Homo sapiens, OVCAR-3, 144 h, 6 days incubation, read-out: OVCAR3 CTG IC50. The format is cell-based. How it is done: The OVCAR3 cancer cells were cultured at temperature 37° C., 5% CO2 incubator. The cells were routinely subcultured. The cells growing in an exponential growth phase were harvested and counted for plating. Plate 100 μL of cell suspension into the assay plates. Incubate the assay plates at 37° C., 5% CO2, 95% air and 100% relative humidity overnight. The compounds to be tested were dissolved in dimethyl sulfoxide and prepared with a stock concentration of 10 mM. Serially dilute the stock solution from highest concentration down to lowest in DMSO to make the compound stock plate (200× stock plates). Add 0.5 μL of the 200× compound of each well into the cells in assay plates. The final DMSO concentration was 0.5%. Return the assay plate into incubator and incubate for 6 days. The procedures were performed according to the Promega CellTiter-Glo Luminescent Cell Viability Assay Kit to detect cell viability.
Inhibition rate (IR) of the tested compounds was determined by the following formula: IR (%)=(average High control−compound well)/(average High control−average Low control)*100%. Fit the compound IC50 from non-linear regression equation: Y=Bottom+(Top−Bottom)/(1+10^((Log IC50−X)*HillSlope)). X: Log of cpd concentration; Y: Inhibition rate (IR); Top and Bottom: Plateaus in same units as Y; log IC50: same log units as X; HillSlope: Slope factor or Hill slope.

The target in another assay is CDK9/CyclinT1 (Homo sapiens (Human), UniProt P50750). The assay is described as follows: CDK9 kinase assay (TR-FRET). The format is biochemical. Particulars: CDK9/CyclinT1 1.0 nM, ATP 3.5 μM. How it is done:
as §1, §2, §3, §4

GSK3β, sequence (P49841 whole entry): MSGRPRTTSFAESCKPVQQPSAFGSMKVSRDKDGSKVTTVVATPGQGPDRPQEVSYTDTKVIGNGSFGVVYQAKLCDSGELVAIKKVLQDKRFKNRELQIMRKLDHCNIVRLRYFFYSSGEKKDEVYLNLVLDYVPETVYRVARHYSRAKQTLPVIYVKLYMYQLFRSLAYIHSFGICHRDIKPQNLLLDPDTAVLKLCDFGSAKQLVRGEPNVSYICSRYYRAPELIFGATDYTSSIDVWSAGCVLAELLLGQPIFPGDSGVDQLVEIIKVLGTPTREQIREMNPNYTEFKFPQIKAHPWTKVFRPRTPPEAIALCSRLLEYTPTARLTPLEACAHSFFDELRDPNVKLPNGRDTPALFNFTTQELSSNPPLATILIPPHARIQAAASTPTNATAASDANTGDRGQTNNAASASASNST
CDK9/CyclinT1, sequence (P50750 whole entry): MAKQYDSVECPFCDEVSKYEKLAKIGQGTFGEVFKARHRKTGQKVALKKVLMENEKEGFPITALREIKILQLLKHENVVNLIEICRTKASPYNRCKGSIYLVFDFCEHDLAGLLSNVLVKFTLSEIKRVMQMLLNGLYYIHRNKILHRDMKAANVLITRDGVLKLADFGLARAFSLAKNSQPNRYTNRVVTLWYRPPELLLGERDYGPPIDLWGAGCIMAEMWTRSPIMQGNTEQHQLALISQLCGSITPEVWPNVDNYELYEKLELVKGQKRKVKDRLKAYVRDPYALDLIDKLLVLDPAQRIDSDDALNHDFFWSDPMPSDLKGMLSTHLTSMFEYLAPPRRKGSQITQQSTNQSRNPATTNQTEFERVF
CDK9/CyclinT1, sequence (O60563 whole entry partner): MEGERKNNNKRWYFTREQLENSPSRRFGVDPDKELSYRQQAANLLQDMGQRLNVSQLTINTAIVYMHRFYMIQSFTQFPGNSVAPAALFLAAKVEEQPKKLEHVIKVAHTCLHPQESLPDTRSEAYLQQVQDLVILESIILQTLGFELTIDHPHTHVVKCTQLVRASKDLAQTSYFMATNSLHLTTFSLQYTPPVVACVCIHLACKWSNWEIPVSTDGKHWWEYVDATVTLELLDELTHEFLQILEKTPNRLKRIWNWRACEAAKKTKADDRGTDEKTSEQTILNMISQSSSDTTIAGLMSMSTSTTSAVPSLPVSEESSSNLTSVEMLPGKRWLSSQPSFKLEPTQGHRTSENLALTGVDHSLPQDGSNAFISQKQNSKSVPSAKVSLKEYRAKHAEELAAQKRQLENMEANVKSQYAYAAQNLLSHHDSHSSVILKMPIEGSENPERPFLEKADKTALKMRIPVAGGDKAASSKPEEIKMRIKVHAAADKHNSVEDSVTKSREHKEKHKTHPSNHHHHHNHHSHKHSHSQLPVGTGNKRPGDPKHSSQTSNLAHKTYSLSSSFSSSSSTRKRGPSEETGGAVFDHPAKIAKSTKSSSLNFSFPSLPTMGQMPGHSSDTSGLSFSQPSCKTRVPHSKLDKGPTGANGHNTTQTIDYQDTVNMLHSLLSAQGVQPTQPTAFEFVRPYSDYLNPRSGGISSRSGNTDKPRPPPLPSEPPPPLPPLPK
CDK1/CyclinB1, sequence (P06493 whole entry): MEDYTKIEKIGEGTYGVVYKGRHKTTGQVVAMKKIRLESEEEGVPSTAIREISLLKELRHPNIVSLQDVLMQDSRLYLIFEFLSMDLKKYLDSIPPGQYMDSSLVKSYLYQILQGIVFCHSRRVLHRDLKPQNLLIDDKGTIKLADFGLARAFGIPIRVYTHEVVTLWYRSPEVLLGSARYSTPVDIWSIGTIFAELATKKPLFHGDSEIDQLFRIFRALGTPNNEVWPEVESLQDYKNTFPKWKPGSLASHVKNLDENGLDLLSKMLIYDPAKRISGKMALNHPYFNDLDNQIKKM
CDK1/CyclinB1, sequence (P14635 whole entry partner): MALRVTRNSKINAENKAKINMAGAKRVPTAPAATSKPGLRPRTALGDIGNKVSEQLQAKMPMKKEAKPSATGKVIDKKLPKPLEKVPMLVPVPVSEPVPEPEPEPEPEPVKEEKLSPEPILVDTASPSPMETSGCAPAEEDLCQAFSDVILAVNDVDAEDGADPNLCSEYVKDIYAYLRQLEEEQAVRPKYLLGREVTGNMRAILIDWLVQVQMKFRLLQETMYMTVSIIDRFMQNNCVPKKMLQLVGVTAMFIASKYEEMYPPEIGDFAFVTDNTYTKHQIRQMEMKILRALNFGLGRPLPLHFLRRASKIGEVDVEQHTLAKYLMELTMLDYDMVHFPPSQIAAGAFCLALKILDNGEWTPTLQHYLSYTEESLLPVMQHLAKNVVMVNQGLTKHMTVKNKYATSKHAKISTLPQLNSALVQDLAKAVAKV

Broadly, the IC50 is the concentration that gives 50% inhibition. In the case of `Cn1nccc1C(=O)Nc1cc([C@H]2C[C@@H](OC(=O)NC3CCC3)CO2)[nH]n1` [Compound 122], the IC50 against CDK1/CyclinB1 was determined as 89.4 nM; at CDK2/CyclinE1 it was 1.9 nM.

Regarding `CC[C@H](C)NC(=O)O[C@@H]1CO[C@H](c2cc(NC(=O)c3ccnn3C)n[nH]2)C1` [Compound 100], the IC50 against CDK1/CyclinB1 was 74.8 nM; on CDK2/CyclinE1 it was 1.5 nM; at GSK3β it was 706 nM.

`CC(C)NC(=O)OC1COC(c2cc(NC(=O)Cc3cc(F)cc(F)c3)n[nH]2)C1` (centres unmarked) [Compound 24]: the figures for the 50% inhibitory concentration (IC50) on CDK1/CyclinB1 and at CDK2/CyclinE1 were 102 nM and 1.8 nM, respectively.

`CC(C)NC(=O)O[C@@H]1CC[C@H](c2cc(NC(=O)[C@@H]3CCN(S(C)(=O)=O)C3)n[nH]2)C1` [Compound 25]: the IC50 against CDK1/CyclinB1 amounted to 54.9 nM; at CDK4/CyclinD1, 510 nM; at CDK6/CyclinD3 it was 899 nM; against CDK2/CyclinE1 it was 1.2 nM.

As for `CC(C)NC(=O)O[C@@H]1CC[C@H](c2cc(NC(=O)C34CC(C(=O)NO)(C3)C4)n[nH]2)C1` [Compound 126], the IC50 against CDK1/CyclinB1 worked out at 142 nM; against CDK2/CyclinE1, 2.5 nM.

As for `Cn1nccc1C(=O)Nc1cc([C@@H]2C[C@H](OC(=O)NC(C)(C)C)CO2)[nH]n1` [Compound 102], the IC50 on CDK1/CyclinB1 turned out to be 133 nM; on CDK2/CyclinE1, 2.5 nM.

In the case of `C#C[C@H]1C[C@@H]1C(=O)Nc1cc([C@H]2CC[C@@H](OC(=O)NC(C)C)C2)[nH]n1` [Compound 41], the IC50 in the assay with OVCAR3 cancer cells was determined as 193 nM; on CDK4/CyclinD1, 306 nM; on CDK6/CyclinD3, 254 nM; against CDK2/CyclinE1 it was 0.9 nM; on GSK3β, 572 nM.

`CC1(NC(=O)OC2COC(c3cc(NC(=O)Cc4cc(F)cc(F)c4)n[nH]3)C2)CCOC1` (centres unmarked) [Compound 52]: the IC50 against CDK1/CyclinB1 is 111 nM; against CDK4/CyclinD1, 1000 nM; on CDK6/CyclinD3, 1000 nM; on CDK2/CyclinE1, 1.6 nM; on GSK3β, 1000 nM.

With `CC(C)(C)NC(=O)O[C@@H]1CC[C@H](c2cc(NC(=O)[C@@H]3CCN(S(C)(=O)=O)C3)n[nH]2)C1` [Compound 84], the IC50 in the assay on OVCAR3 cancer cells amounted to 74 nM; against CDK2/CyclinE1 it was 1.6 nM.

Regarding `CC[C@H](C)NC(=O)O[C@@H]1CC[C@H](c2cc(NC(=O)[C@H]3C[C@@H]3COC)n[nH]2)C1` [Compound 33], the IC50 came to 118 nM on CDK1/CyclinB1, 652 nM against CDK4/CyclinD1, 574 nM against CDK6/CyclinD3 and 1.9 nM against CDK2/CyclinE1.

For `Cn1nccc1C(=O)Nc1cc([C@@H]2C[C@H](OC(=O)NC34CC(C3)C4)CO2)[nH]n1` [Compound 97], the IC50 was 72.6 nM on CDK1/CyclinB1, 1.1 nM against CDK2/CyclinE1 and 381 nM against GSK3β.

For `CCC(C)(C)NC(=O)O[C@@H]1CO[C@H](c2cc(NC(=O)c3ccnn3C)n[nH]2)C1` [Compound 191], the IC50 at CDK1/CyclinB1 is 101 nM; at CDK9/CyclinT1 it was 131 nM; against CDK2/CyclinE1 it was 1.2 nM.

In the case of `CCS(=O)(=O)N1CC[C@@H](C(=O)Nc2cc([C@H]3CC[C@@H](OC(=O)NC(C)C)C3)[nH]n2)C1` [Compound 49], the IC50 was 132 nM on CDK1/CyclinB1, 2.2 nM against CDK2/CyclinE1 and 395 nM on GSK3β.

As for `O=C(NC12CC(F)(C1)C2)O[C@@H]1CC[C@H](c2cc(NC(=O)[C@@H]3CCN(S(=O)(=O)C4CC4)C3)n[nH]2)C1` [Compound 181], the IC50 against CDK1/CyclinB1 worked out at 34.4 nM; at CDK2/CyclinE1, 0.8 nM.

For `CC(C)NC(=O)O[C@@H]1CC[C@H](c2cc(NC(=O)C3CC(C)N(S(C)(=O)=O)C3)n[nH]2)C1` (single isomer, unassigned) [Compound 143], the figures for the IC50 against CDK1/CyclinB1, on CDK9/CyclinT1 and on CDK2/CyclinE1 were 60.9 nM, 1000 nM and 1.2 nM, respectively.

`CC(C)NC(=O)O[C@@H]1CC[C@H](C2=CC(NC(=O)[C@H]3C[C@@H]3[C@H](C)O)=NC2)C1` [Compound 136]: the IC50 at CDK1/CyclinB1 was 64.6 nM; on CDK2/CyclinE1 it was 1.2 nM.

For `CC1(NC(=O)OC2COC(c3cc(NC(=O)Cc4cc(F)cc(F)c4)n[nH]3)C2)CCOC1` (centres unmarked) [Compound 53], the IC50 against CDK1/CyclinB1 was 134 nM; against CDK2/CyclinE1, 2.1 nM.

Consider `Cn1nccc1C(=O)Nc1cc([C@H]2CC[C@@H](OC(=O)NC3COC4(CCC4)C3)C2)[nH]n1` (single isomer, unassigned) [Compound 44], for which the IC50 on CDK1/CyclinB1 was 255 nM; against CDK2/CyclinE1, 3.2 nM.

Take `C#CC1(NC(=O)O[C@H]2CO[C@@H](c3cc(NC(=O)c4ccnn4C)n[nH]3)C2)CCC1` [Compound 189]: the IC50 against CDK1/CyclinB1 was found to be 58.6 nM; against CDK2/CyclinE1, 1 nM.

For the molecule `C#C[C@H]1C[C@@H]1C(=O)Nc1cc([C@H]2CC[C@@H](OC(=O)NC3(C)COC3)C2)[nH]n1` [Compound 180], the results for the IC50 on CDK1/CyclinB1, on CDK9/CyclinT1 and on CDK2/CyclinE1 were 69.4 nM, 210 nM and 1.1 nM, respectively.

Take `CC(C)NC(=O)O[C@@H]1CC[C@H](c2cc(NC(=O)C34CC(C#N)(C3)C4)n[nH]2)C1` [Compound 109]: the results for the IC50 in the assay on OVCAR3 cancer cells and against CDK2/CyclinE1 were 237 nM and 0.9 nM, respectively.

`Cc1c(C2CC2C(=O)Nc2cc([C@H]3CC[C@@H](OC(=O)NC4(C)CC4)C3)[nH]n2)cnn1C` (single isomer, unassigned) [Compound 206] displayed an IC50 against CDK2/CyclinE1 of 0.8 nM.

`CC(C)NC(=O)O[C@@H]1CO[C@H](c2cc(NC(=O)Cc3ccc4ncn(C)c4c3)n[nH]2)C1` [Compound 103] yielded an IC50 against CDK2/CyclinE1 of 10.8 nM.

As to `CCC1(NC(=O)O[C@@H]2CO[C@H](c3cc(NC(=O)c4ccnn4C)n[nH]3)C2)CC1` [Compound 204], on CDK2/CyclinE1, the IC50 amounted to 1 nM.

For the molecule `CC(C)NC(=O)O[C@@H]1CC[C@H](c2cc(NC(=O)[C@@H]3CCN(S(=O)(=O)C4CC4)C3)n[nH]2)C1` [Compound 70], the IC50 at CDK2/CyclinE1 worked out at 1.2 nM.

At CDK2/CyclinE1, `CC(C)NC(=O)O[C@@H]1CC[C@H](c2cc(NC(=O)[C@H]3C[C@@H]3C#CC(F)F)n[nH]2)C1` [Compound 161] came in with an IC50 of 1 nM.

At CDK2/CyclinE1, `CC1(NC(=O)OC2COC(c3cc(NC(=O)Cc4cc(F)cc(F)c4)n[nH]3)C2)CCOC1` (centres unmarked) [Compound 51] displayed an IC50 of 1.7 nM.

For `CC(C)NC(=O)O[C@@H]1CO[C@H](c2cc(NC(=O)Cc3cc(F)cc(C#N)c3)n[nH]2)C1` [Compound 116], on CDK2/CyclinE1, it took 4.5 nM to reach half-maximal inhibition (IC50).

On CDK2/CyclinE1, `COCc1cc(C(=O)Nc2cc([C@H]3CC[C@@H](OC(=O)N[C@H]4C[C@@]5(CCOC5)C4)C3)[nH]n2)n(C)n1` [Compound 201] came in with an IC50 of 4.6 nM.

For `Cc1occc1C(=O)Nc1cc([C@@H]2C[C@H](OC(=O)NC(C)C)CO2)[nH]n1` [Compound 133], the IC50 against CDK2/CyclinE1 turned out to be 50.1 nM.

`CC(C)NC(=O)O[C@@H]1CC[C@H](c2cc(NC(=O)C3[C@H]4COC[C@@H]34)n[nH]2)C1` (some centres unmarked) [Compound 115]: at CDK2/CyclinE1, half-maximal inhibition (IC50) was put at 54.5 nM.

Values taken from patent publication US20250195475A1, “CDK2 INHIBITOR AND PREPARATION METHOD AND USE THEREOF” (INVENTISBIO CO., LTD., priority 2022, published 2025).
